Converted amounts (≈) assume the structure as drawn.
Key:
physchem = assay type: physicochemical; conditions: pH 7.4, aqueous buffer, kinetic from dmso stock
Method: A DMSO solution of the test compound (2.5 mM; 0.5 μl) is pipetted into 200 μl of an aqueous test solution (e.g. phosphate-buffered saline, 10×, 1M, Sigma, adjusted to 10 mM, pH 7.4) in a 96-well microtiter plate, and the turbidity is measured at the resulting theoretical concentration for the test compound of 6.25 μM using a nephelometer (e.g. Nephelostar Galaxy, BMG Labtech). The concentration of the test compound in the aqueous test solution is then raised to a theoretical 12.5 μM by adding further DMSO solution (2.5 mM; 0.5 μl), and the turbidity measurement is repeated. Further additions of DMSO solutions (1 μl, 2.5 mM; 0.5 μl, 10 mM; then 9×1 μl, 10 mM resulting in theoretical concentrations of 25 μM, 50 μM, 100 μM, 150 μM, 200 μM, 250 μM, 300 μM, 350 μM, 400 μM, 450 μM and 500 μM) with turbidity measurement in between complete the measurement process.
Evaluation: The turbidity values from the nephelometer are plotted against the theoretical concentration of the test compound in the aqueous test solution. As soon as a significant turbidity is detected (e.g. 5 times above the control value of the aqueous test solution) at a theoretical concentration, the level of concentration below this is stated to be the solubility limit of the test compound in the test solution. Thus, the maximum possible measurement range emerges as values <6.25 μM, 6.25−500 μM and >500 μM.

human MCH receptor = biological target: T1, human MCH receptor (Homo sapiens, UniProt Q99705); assay: calcium mobilization assay (FLIPR); functional IC50 of MCH1R antagonists; assay type: cell-based; conditions: recombinant HEK293 cell line expressing human MCH receptor; calcium flux after addition of agonist MCH
T1 construct: expressed in transfected cells
Excerpt: Influence on the MCH Receptor In Vitro; Determination of Functional IC50 Values of MCH1R Antagonists
Cloning of the cDNA for the human MCH receptor, preparation of a recombinant HEK293 cell line which expresses the human MCH receptor, and functional measurements with the recombinant cell line took place in analogy to the description by Audinot et al. (J. Biol. Chem. 2001, 276, 13554-13562). A difference from the reference was, however, the use of the plasmid pEAK8 from EDGE Biosystems (USA) for the construction of the expression vector. The host used for the transfection was a transformed HEK cell line named “PEAK Stable Cells” (likewise from EDGE Biosystems). Functional measurements of the cellular calcium flux after addition of agonist (MCH) in the presence of ligand of the invention took place with the aid of the FLIPR apparatus from Molecular Devices (USA), using protocols of the apparatus manufacturer. The compounds of the invention show a significant inhibition (>30%) of the signal induced by the agonist at a concentration of 100 μM, preferably at 10 μM, particularly preferably at 1 μM, very particularly preferably at 100 nM and very very particularly preferably at 10 nM.

hERG channel = biological target: T2, hERG channel (Homo sapiens, UniProt Q12809); assay: hERG channel blockade, whole-cell patch clamp in CHO cells expressing hERG; assay type: cell-based; conditions: CHO cells with stable hERG expression, room temperature, read-out: hERG Inh. IC50
T2 construct: expressed in transfected cells; host or cells: CHO cells (ATCC), pcDNA3 vector, G418 selection
Excerpt: The aim of the test is to determine the concentration range in which the test compound blocks the cardiac hERG channel. Blockade of the hERG channel, which is responsible for the Ikr current in the human heart, is associated with potentially fatal arrhythmias.
For expression of the cDNA encoding the hERG channel it was cloned into the pcDNA3 vector (Invitrogen). Chinese hamster […] (CHO, American Type Culture Collection, Rockville, Md.) were transfected using lipofectamine (GIBCO/BRL, Grand Island, N.Y.) with the hERG cDNA and selected using G418 (GIBCO/BRL, Grand Island, N.Y.; 500 μg/ml). CHO cells with stable expression of the hERG channel were cultured on a HAM F-12 medium which was supplemented with 10% native bovine serum, 1× penicillin/streptomycin and 500 μg/ml G418 in an atmosphere of 95% air/5% carbon dioxide.
The cells selected for the patch clamp experiment are seeded on a plastic support 18-24 hours before the experiment. HERG channel currents are recorded at room temperature by the whole-cell variant of the patch clamp technique using an Axopatch 200B amplifier (Axon Instruments, Foster City, Calif.). The electrodes (3-6 megaohms resistance) are prepared from TW150F glass capillaries (World Precision Instruments, Sarasota, Fla.) and filled with the pipette solution (120 mM potassium aspartate, 20 mM KCl, 4 mM Na2ATP, 5 mM HEPES, 1 mM MgCl2; adjusted to pH 7.2 with KOH). The hERG channel currents are induced by a positive voltage pulse (20 mV) followed by a negative pulse (−40 mV) and are recorded for later analysis. As soon as the hERG channel current of the cell flushed with the control solution ([…], 5 mM KCl, 2.8 mM NaOAc, 1 mM MgCl2, 10 mM HEPES; 10 mM glucose, 1 mM CaCl2; adjusted to pH 7.4 with NaOH) is stable, the cell is perfused with the test compound dissolved in the above control solution (by dilution of a 10 or 100 mM DMSO solution of the test compound so that the DMSO content is no more than 0.1%). The current is followed continuously until no further changes occur. The same procedure is repeated with increasing concentrations of the test compound. The maximum amplitude of the hERG current is measured in picoAmperes (pA) for each concentration and for each cell. The maximum amplitude in pA for each concentration of the test compound is compared with that of the pure control solution in the same cell and calculated as % of the control value.
Evaluation: The test compound is tested at various concentrations in 3-5 CHO cells which express the hERG channel. The IC50 is obtained by use of nonlinear least squares regression (GraphPAD Software, San Diego, Calif.).

T1 sequence (Q99705 whole entry): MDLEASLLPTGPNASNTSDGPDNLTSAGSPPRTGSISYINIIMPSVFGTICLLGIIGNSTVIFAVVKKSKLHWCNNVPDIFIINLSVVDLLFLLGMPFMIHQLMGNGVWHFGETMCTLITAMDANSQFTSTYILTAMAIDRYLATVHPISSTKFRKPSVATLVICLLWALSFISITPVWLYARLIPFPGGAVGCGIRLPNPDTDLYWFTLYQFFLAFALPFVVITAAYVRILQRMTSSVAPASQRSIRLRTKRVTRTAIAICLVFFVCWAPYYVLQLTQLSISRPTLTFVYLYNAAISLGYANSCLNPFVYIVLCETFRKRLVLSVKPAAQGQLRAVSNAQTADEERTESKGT
T2 sequence (Q12809 whole entry): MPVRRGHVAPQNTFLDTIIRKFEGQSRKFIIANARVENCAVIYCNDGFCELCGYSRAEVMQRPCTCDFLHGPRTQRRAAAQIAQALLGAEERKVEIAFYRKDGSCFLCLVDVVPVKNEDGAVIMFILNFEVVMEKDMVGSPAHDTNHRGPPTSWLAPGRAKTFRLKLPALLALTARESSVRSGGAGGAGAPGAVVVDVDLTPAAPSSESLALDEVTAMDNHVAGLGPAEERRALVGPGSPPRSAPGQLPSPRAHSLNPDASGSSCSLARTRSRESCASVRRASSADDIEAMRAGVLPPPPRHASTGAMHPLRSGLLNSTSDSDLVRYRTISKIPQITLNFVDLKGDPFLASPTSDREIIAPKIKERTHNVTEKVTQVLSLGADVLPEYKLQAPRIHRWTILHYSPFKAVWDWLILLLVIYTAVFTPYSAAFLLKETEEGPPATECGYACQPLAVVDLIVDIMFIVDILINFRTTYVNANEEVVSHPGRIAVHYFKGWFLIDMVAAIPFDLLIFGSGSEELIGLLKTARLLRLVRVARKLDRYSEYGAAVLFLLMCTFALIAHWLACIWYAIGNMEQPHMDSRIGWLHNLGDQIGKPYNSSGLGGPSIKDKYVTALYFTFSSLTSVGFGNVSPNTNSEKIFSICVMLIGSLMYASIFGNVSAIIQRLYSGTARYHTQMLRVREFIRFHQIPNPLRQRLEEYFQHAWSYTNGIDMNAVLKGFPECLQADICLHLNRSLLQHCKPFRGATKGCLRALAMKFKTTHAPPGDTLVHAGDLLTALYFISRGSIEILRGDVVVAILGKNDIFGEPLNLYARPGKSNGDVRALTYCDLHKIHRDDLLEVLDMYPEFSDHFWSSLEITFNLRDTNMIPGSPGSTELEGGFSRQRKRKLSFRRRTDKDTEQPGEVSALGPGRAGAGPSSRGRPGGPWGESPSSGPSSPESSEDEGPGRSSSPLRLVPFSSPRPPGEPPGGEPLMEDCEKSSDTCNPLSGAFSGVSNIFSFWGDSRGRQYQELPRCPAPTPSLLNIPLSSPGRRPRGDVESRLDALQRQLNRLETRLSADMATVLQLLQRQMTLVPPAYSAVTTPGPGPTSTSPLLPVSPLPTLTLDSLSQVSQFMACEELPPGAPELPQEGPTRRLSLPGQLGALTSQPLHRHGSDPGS

| solubility kinetic (physchem) [µM] | IC50 (human MCH receptor) [nM] | Structure (SMILES) | IC50 (hERG channel) [nM] |
| --- | --- | --- | --- |
| > 500 | 90 | O=C(N[C@H]1CCc2cc(CN3CCCC3)ccc2C1)c1ccc(OC[C@@H]2CCCO2)cc1 [Example 1, N-((S)-6-Pyrrolidin-1-ylmethyl-1,2,3,4-tetrahydronaphthalen-2-yl)-4-[(S)-1-(tetrahydrofuran-2-yl)methoxy]benzamide] | > 30000 |
| > 500 | – | O=C(N[C@H]1CCc2cc(CNC3CCCCC3)ccc2C1)c1ccc(OC[C@@H]2CCCO2)cc1 [Example 3-6] | > 10000 |
| 450 (≈ 214 µg/mL) | 110 | CC1(C)CCN(Cc2ccc3c(c2)CC[C@H](NC(=O)c2ccc(OC[C@@H]4CCCO4)cc2)C3)CC1 [Example 3-166] | > 10000 |

The remaining lines, values behind:

| Structure (SMILES) | solubility kinetic (physchem) [µM] | IC50 (human MCH receptor) [nM] | IC50 (hERG channel) [nM] |
| --- | --- | --- | --- |
| CC(C)(C)CNCc1ccc2c(c1)CC[C@H](NC(=O)c1ccc(OC[C@@H]3CCCO3)cc1)C2 [Example 3-34] | 50 (≈ 22.5 µg/mL) | 100 | > 30000 |
| COC1CCN(Cc2ccc3c(c2)CC[C@H](N2CCc4cc(OC[C@@H]5CCCO5)ccc4C2=O)C3)CC1 [Example 14, 2-[(S)-6-(4-Methoxypiperidin-1-ylmethyl)-1,2,3,4-tetrahydronaphthalen-2-yl]-6-[(S)-1-(tetrahydrofuran-2-yl)methoxy]-3,4-dihydro-2H-isoquinolin-1-one] | > 500 | 630 | > 10000 |
